{"source": "patent US20140363889A1", "about": "“METHOD FOR PRODUCING MULTIPOLAR CELL” (TOAGOSEI CO., LTD., priority 2011, published 2014)", "format_in_all_cases": "cell-based", "key": {"[1]": {"tested_on": "human alveolar basal epithelial adenocarcinoma cells, A549", "assay": "Multipolarity-inducing activity assay 3 (A549 cells synchronized in G2 phase (or M phase))", "conditions": "10 μM peptide, number of M-phase cells 100", "description": "Some of the sample peptides obtained in Example 1 were tested for multipolarity-inducing activity against target cultured tumor cells. As the tumor cells tested, cells forming a […] (human alveolar basal epithelial adenocarcinoma cells, A549) were used. The cell line was cultured in the same manner as Example 2 described above. The resulting cultured tumor cells were synchronized in the G2 phase (or M phase) in the same manner as Example 3 described above. Similarly to Examples 2 and 3 described above (the number of M-phase cells was 100 herein), the presence of multipolarity was observed by immunofluorescence under fluorescence microscope."}, "HeLa cell line (HeLa S3) [2]": {"tested_on": "HeLa cell line (HeLa S3)", "assay": "Multipolarity-inducing activity assay 2 (cells synchronized in G2 phase (or M phase) by nocodazole)", "conditions": "10 μM peptide, 4 hours with peptide + 2 hours without; for Multipolar level (%): % multipolar cells relative to M-phase cells; for Number of multipolar cells: count among 60 M-phase cells", "description": "The same sample peptides as those used in Example 2 above were used and tested for multipolarity-inducing activity against cultured tumor cells synchronized in the G2 phase (or M phase). Details of the assay are as described below.\nAs the tumor cells tested, a HeLa cell line (HeLa S3) was used. The cell line was cultured under the same conditions as Example 2 and seeded at about 3×10^4 cells per well in an 8-well slide glass. Thymidine was added to the culture medium to a final concentration of 2.5 mM. Incubation was carried out at 37° C. under 5% CO2 for 18 hours. The culture medium was exchanged to remove thymidine and incubation was carried out for 6 more hours. Subsequently, nocodazole was added to a final concentration of 0.1 μg/mL and incubation was carried out for 16 hours. By such addition of nocodazole, the cells being cultured were synchronized in the G2 phase (M phase) of the cell cycle.\nAfter the 16 hours of incubation, without exchanging the culture medium (i.e. with nocodazole being contained), one of the sample peptides was added to each well to a peptide concentration in the well of 10 μM and incubation was carried out for 4 hours. Subsequently, the culture medium was exchanged and incubation was continued for 2 more hours without nocodazole or the sample peptide.\nAfter the 2 hours of incubation, in the same manner as Example 2, the presence of multipolarity was observed by immunofluorescence under fluorescence microscope."}, "HeLa cell line (HeLa S3) [3]": {"tested_on": "HeLa cell line (HeLa S3)", "assay": "Multipolarity-inducing activity assay 1 (cells synchronized in G1 phase by double thymidine block)", "conditions": "10 μM peptide, 6 hours incubation; for Multipolar level (%): % multipolar cells relative to M-phase cells; for Number of multipolar cells: count among the M-phase cells observed", "description": "Some of the sample peptides obtained in Example 1 were tested for multipolarity-inducing activity against target cultured tumor cells. Details of the assay are as described below.\nAs the tumor cells tested, a HeLa cell line (HeLa S3) was used. The cell line was cultured beforehand in a DMEM medium (i.e. Dulbecco MEM medium (DMEM medium, a Gibco product) containing 10% fetal bovine serum (FBS, a Gibco product), 2 mM of L-glutamine, 50 unit/mL of penicillin, and 50 μg/mL of streptomycin), and seeded at about 3×10^4 cells per well in an 8-well slide glass. Thymidine was added to the culture medium to a final concentration of 2.5 mM. Incubation was carried out at 37° C. under 5% CO2 for 16 hours. The culture medium was exchanged to remove thymidine and incubation was carried out for 8 more hours. Subsequently, thymidine was added again to a final concentration of 2.5 mM and incubation was carried out for 16 hours.\nBy such double thymidine block, the cells being cultured were synchronized in the G1 phase of the cell cycle. After such synchronization treatment, the culture medium was exchanged to remove thymidine and incubation was carried out for 2 more hours. Subsequently, one of the sample peptides was added to each well. In this example, one of Samples 1, 4, 5, 7, 9 and 11 was added to a peptide concentration in the well of 10 μM.\nAfter a sample peptide was added as described above, the 8-well slid glass was incubated under the aforementioned conditions for 6 hours.\nAfter 6 hours of incubation, the presence of multipolarity was observed by immunofluorescence under fluorescence microscope. In particular, after 6 hours of incubation following the addition of a sample peptide, the cultured cells were subjected to nuclear staining with DAPI (4′,6-diamidino-2-phenylindole), and using α-tubulin as a marker for spindles, the cells were tested for the presence of tubulin (i.e. the presence of spindles) by immunofluorescence with an anti-tubulin antibody (primary antibody) to identify the tubulin and a fluorescent dye (ALEXA FLUOR(registered trademark) 555)-labeled secondary antibody to identify the primary antibody. In addition, using centrin-2 as a marker for centrosomes (centrioles), the cells were tested for the presence of centrin-2 (i.e. the presence of centrosomes) by immunofluorescence with an anti-centrin-2 antibody (primary antibody) to identify the centrin-2 and a fluorescent dye-labeled secondary antibody to identify the primary antibody."}}}
{"sequence": "NMTTYPMHNNTV [Sample 6]", "values": [{"measurement": "Multipolar level (%)", "setting": "[1]", "result": 32, "unit": "%"}]}
{"sequence": "SLLPHSNHAKHY [Sample 7]", "values": [{"measurement": "Multipolar level (%)", "setting": "HeLa cell line (HeLa S3) [2]", "result": 43.3, "unit": "%"}, {"measurement": "Number of multipolar cells", "setting": "HeLa cell line (HeLa S3) [2]", "result": 26}, {"measurement": "Multipolar level (%)", "setting": "HeLa cell line (HeLa S3) [3]", "result": 13.0, "unit": "%"}, {"measurement": "Number of multipolar cells", "setting": "HeLa cell line (HeLa S3) [3]", "result": 13}, {"measurement": "Multipolar level (%)", "setting": "[1]", "result": 28, "unit": "%"}]}
{"sequence": "QSPVNHHYHYHI [Sample 5]", "values": [{"measurement": "Multipolar level (%)", "setting": "HeLa cell line (HeLa S3) [2]", "result": 41.7, "unit": "%"}, {"measurement": "Number of multipolar cells", "setting": "HeLa cell line (HeLa S3) [2]", "result": 25}, {"measurement": "Multipolar level (%)", "setting": "HeLa cell line (HeLa S3) [3]", "result": 10.8, "unit": "%"}, {"measurement": "Number of multipolar cells", "setting": "HeLa cell line (HeLa S3) [3]", "result": 12}, {"measurement": "Multipolar level (%)", "setting": "[1]", "result": 34, "unit": "%"}]}
{"sequence": "SVSVGMKPSPRPKKRTLRKNDRKKR [Sample 11]", "values": [{"measurement": "Multipolar level (%)", "setting": "HeLa cell line (HeLa S3) [2]", "result": 41.7, "unit": "%"}, {"measurement": "Number of multipolar cells", "setting": "HeLa cell line (HeLa S3) [2]", "result": 25}, {"measurement": "Multipolar level (%)", "setting": "HeLa cell line (HeLa S3) [3]", "result": 12.7, "unit": "%"}, {"measurement": "Number of multipolar cells", "setting": "HeLa cell line (HeLa S3) [3]", "result": 13}, {"measurement": "Multipolar level (%)", "setting": "[1]", "result": 32, "unit": "%"}]}
{"sequence": "EFEYFHPATFRL [Sample 8]", "values": [{"measurement": "Multipolar level (%)", "setting": "[1]", "result": 26, "unit": "%"}]}
{"sequence": "SVSVGMKPSPRP [Sample 1]", "values": [{"measurement": "Multipolar level (%)", "setting": "HeLa cell line (HeLa S3) [2]", "result": 40.0, "unit": "%"}, {"measurement": "Number of multipolar cells", "setting": "HeLa cell line (HeLa S3) [2]", "result": 24}, {"measurement": "Multipolar level (%)", "setting": "HeLa cell line (HeLa S3) [3]", "result": 11.5, "unit": "%"}, {"measurement": "Number of multipolar cells", "setting": "HeLa cell line (HeLa S3) [3]", "result": 12}, {"measurement": "Multipolar level (%)", "setting": "[1]", "result": 30, "unit": "%"}]}
{"sequence": "GPHLGMNQRRRP [Sample 9]", "values": [{"measurement": "Multipolar level (%)", "setting": "HeLa cell line (HeLa S3) [2]", "result": 55.0, "unit": "%"}, {"measurement": "Number of multipolar cells", "setting": "HeLa cell line (HeLa S3) [2]", "result": 33}, {"measurement": "Multipolar level (%)", "setting": "HeLa cell line (HeLa S3) [3]", "result": 10.4, "unit": "%"}, {"measurement": "Number of multipolar cells", "setting": "HeLa cell line (HeLa S3) [3]", "result": 11}, {"measurement": "Multipolar level (%)", "setting": "[1]", "result": 27, "unit": "%"}]}
{"sequence": "NMTTYPMHNNTVKKRTLRKNDRKKR [Sample 16]", "values": [{"measurement": "Multipolar level (%)", "setting": "[1]", "result": 33, "unit": "%"}]}
{"sequence": "GAVTYSRISGQY [Sample 10]", "values": [{"measurement": "Multipolar level (%)", "setting": "[1]", "result": 29, "unit": "%"}]}
{"sequence": "TPSLPPTMFRLT [Sample 3]", "values": [{"measurement": "Multipolar level (%)", "setting": "[1]", "result": 32, "unit": "%"}]}
{"sequence": "GPHHYWYHLRLP [Sample 4]", "values": [{"measurement": "Multipolar level (%)", "setting": "HeLa cell line (HeLa S3) [2]", "result": 48.3, "unit": "%"}, {"measurement": "Number of multipolar cells", "setting": "HeLa cell line (HeLa S3) [2]", "result": 29}, {"measurement": "Multipolar level (%)", "setting": "HeLa cell line (HeLa S3) [3]", "result": 13.6, "unit": "%"}, {"measurement": "Number of multipolar cells", "setting": "HeLa cell line (HeLa S3) [3]", "result": 14}, {"measurement": "Multipolar level (%)", "setting": "[1]", "result": 28, "unit": "%"}]}
